Columns and labels:
Melan-a cell [1] = test: Melanin analysis of melan-a cell (melanin content); format: cell-based, mouse; details: melan-a cells (FIG. 3); for effect inhibiting the melanin production: 10 μM, corresponds to 4.44 ppm; for effect of inhibiting melanin production: 0.1, 1, 10 μM, 6 days; for skin whitening effect compared with positive controls (50 ppm arbutin, 50 ppm kojic acid): much less amount than the controls
Method: (§1) Melanin-forming cell (melanocyte) derived from C57BL/6J mouse, melan-a cell was cultured by using RPMI-1640 medium (Lonza, USA) with 10% FBS (Fetal Bovine Serum; bovine fetal serum) and 50 U/ml penicillin, 50 μg/ml streptomycin under the condition of 37° C., 10% CO2 and then used in the following experiment.
The Melan-a cell cultured by the method of the Reference Example 2 was seeded on 48 well plate so as to be 1.5×10^4 of the cell number per well and then, cultured for 24 hours. Then, a new medium containing various concentrations (0.1, 1, 10 μM) of 3β, 5α-dihydroxy-6β-methoxy-(22E, 24R)-ergosta-7,22-diene or 3β, 5α, 9α-trihydroxy-(22E, 24R)-ergosta-7,22-diene-6-one isolated from the Reference Example 1 was treated. At this time, in order to compare it, a medium containing 50 ppm of arbutin or 50 ppm of kojic acid was used as a positive control. The medium was treated for 6 days, and after three days, a new medium was exchanged. After 6 days, the cell was washed with DPBS and then, was added with 2N NaOH (10% DMSO) and dissolved at 60° C. for 1 hour. The cell lysate dissolved was moved into 96 well plates and then its absorbance (OD 475) was measured. The measured value was calculated as melanin content from the standard curve for the synthesized melanin, and the melanin content calculated was standardized by the total amount of the protein of each experimental group, and then it was compared with the control to estimate the efficiency. The results are represented in FIG. 3.
In addition, in order to compare the whitening effect of 3β, 5α-dihydroxy-6β-methoxy-(22E, 24R)-ergosta-7,22-diene and 3β, 5α, 9α-trihydroxy-(22E, 24R)-ergosta-7,22-diene-6-one with that of Lentinula edodes extract, the separate melan-a cell melanin assay experiment was performed with the same method as the above. At this time, 50 ppm of arbutin or 12.5, 25, 50, 100 ppm of ethanol extracts of Lentinula edodes obtained from the Reference Example 1 were used, and used by containing them in the medium for the cell culture. The results were represented in FIG. 4.

Melan-a cell [2] = test: Cytotoxic test (MTT assay), survival rate of cells; format: cell-based, mouse; details: 50 ppm, melan-a cells (FIG. 2)
Method: as §1
Melan-a cell cultured by the method of the Reference Example 2 was seeded on 96 well plates so as to be 1.0×10^4 of cell number and then, cultured for 24 hours. […] Absorbance (OD 570) was determined by using microplate reader (Product Name: Synergy 2 (BioTek)), and a survival rate of the cell was determined by comparing it with the control. […]
The method similar to the Experimental Example 1 was used, except that 50 ppm arbutin, Lentinula edodes extracts (12.5, 25, 50, 100 ppm) were used as the sample treated. Absorbance (OD 570) was measured by using microplate reader (Product Name: Synergy 2 (BioTek)), and a survival rate of the cell was determined by comparing it with the control. […]

## CC(C)[C@@H](C)/C=C/[C@@H](C)[C@H]1CC[C@H]2C3=CC(=O)[C@@]4(O)C[C@@H](O)CC[C@]4(C)[C@@]3(O)CC[C@]12C [3β, 5α, 9α-trihydroxy-(22E, 24R)-ergosta-7,22-diene-6-one]
Melan-a cell [1]
  effect inhibiting the melanin production: remarkable effect inhibiting the melanin production
  effect of inhibiting melanin production: exhibits the effect of inhibiting a melanin production
  skin whitening effect compared with positive controls (50 ppm arbutin, 50 ppm kojic acid): remarkably excellent skin whitening effect than albumin and kojic acid

## CO[C@@H]1C=C2[C@@H]3CC[C@H]([C@H](C)/C=C/[C@H](C)C(C)C)[C@@]3(C)CC[C@@H]2[C@@]2(C)CC[C@H](O)C[C@]12O [3β, 5α-dihydroxy-6β-methoxy-(22E, 24R)-ergosta-7,22-diene]
Melan-a cell [1]
  effect inhibiting the melanin production: remarkable effect inhibiting the melanin production
  effect of inhibiting melanin production: exhibits the effect of inhibiting a melanin production
  skin whitening effect compared with positive controls (50 ppm arbutin, 50 ppm kojic acid): remarkably excellent skin whitening effect than albumin and kojic acid

## OC[C@H]1O[C@@H](Oc2ccc(O)cc2)[C@H](O)[C@@H](O)[C@@H]1O [arbutin]
Melan-a cell [2]
  effect on the cell growth (survival rate, MTT): did not affect the cell growth

From US9901525B2, “External use skin composition, containing Lentinula edodes-derived ergosterol” (Amorepacific Corporation, priority 2013, dated 2018)
